Experiments:
SW480 cells = assay: Anchorage-independent growth assay with Brefeldin A in the presence of NT; format: cell-based, human
Method: Anchorage-independent growth assays. […] HCT-116 and SW480 cells were transfected with miR-133α or si-AFTPH 2 days prior to the assay. In addition, SW480 cells were treated with 2.5, 5, 10 μg/ml brefeldin A in the presence of 100 nM NT. Triplicates of 5,000 cells were suspended in complete growth media supplemented with 0.4% agarose [mixing 2% agarose with complete growth media in 1:4 (v/v)). Cell mixtures were layered on 0.8% agarose and fed with complete growth media supplemented with 0.4% agarose every 6-7 days. The number of colonies was counted after 15 days. Experiments were repeated 3 times. Statistical significance was calculated using the Student's t-Test.

NCM460-NTR1 cells = assay: NTR1 localization and recycling by immunofluorescence; format: cell-based, human; details: 10 nM Brefeldin A during recovery
Method: Immunofluorescence. NCM460-NTR1 cells were transfected with antisense miR-133α (as-miR-133α) (Ambion) and its control using siPORTNeoFX transfection reagent (Applied Biosystems) or siRNA against AFTPH and its control (Santa Cruz) using Lipofectamine™ RNAiMAX (Invitrogen) where appropriate. […] Cells were fixed in PBS containing 4% (w/v) paraformeldehyde (pH 7.4, 20 min, 4° C.) and blocked in PBS containing 3% bovine serum and 0.1% Triton X. Cells were incubated (16 h, 4° C.) with the following antibodies (Santa Cruz): goat anti-NTR1 (1:100), goat anti-AFTPH (1:100) and rabbit anti-TGN38 (1:100). Cells were washed and incubated (2 h, room temperature) with bovine anti-goat IgG or bovine-anti-rabbit IgG conjugated to FITC or Texas Red (Santa Cruz, 1:500). […]
Image analysis protocol. Substacks of five optical sections were generated per image and were analyzed using Images J with MacBiophotonics plugins. […] Mean fluorescence intensity was measured for these two regions, representing the intracellular and cell surface associated NTR1 labeling, respectively. The relative surface and intracellular values were expressed as a ratio. […] Only cells with a defined nucleus were analyzed and only within cell comparisons were made. […]

Compound: C[C@H]1CCC/C=C/[C@@H]2C[C@H](O)C[C@H]2[C@H](O)/C=C/C(=O)O1 [Brefeldin A]
- SW480 cell growth (colony formation) (SW480 cells; 2.5, 5, 10 μg/ml): inhibited
- reduction of NT-induced tumor colony formation (SW480 cells; NT 100 nM): 44.1±1.1%
- membrane-associated NTR1 vs total cellular receptors (NCM460-NTR1 cells; 3 h after NT stimulation): 57.0±2.95%
- membrane-associated NTR1 vs total cellular receptors (NCM460-NTR1 cells; 6 h after NT stimulation): 52.1±2.89%

From patent US10233463B2, “Neurotensin-induced tumor formation is regulated by micro RNA 133A-aftiphilin-dependent receptor recycling” (THE REGENTS OF THE UNIVERSITY OF CALIFORNIA, priority 2013, dated 2019)
